Data reported in patent publication US9573972B2, “Nurotoxic sterol glycosides” (priority 2008, dated 2017).

Test system: male CD-1 mice
Experiment: Gait analysis (Digigait), SG-fed mice
Assay type: in vivo, mouse
Conditions: SG-fed vs control
Source text: Five-month old male CD-1 mice (30.1-35.7 g, 7.5 cm-8.8 cm) were purchased from Charles River (Wilmington, Mass.). Adult mice were chosen to mimic the mean age of onset of ALS-PDC (Kurland, L. T. (1988a) Trends Neurosci. 11, 51-4; Kurland, L. T., et al. (1994) Amyotrophic lateral sclerosis-parkinsonism-dementia complex on Guam: epidemiologic and etiological perspectives. 109-131). Thirty mice for the SG study were randomly divided into 2 groups (14 control and 16 experimental animals). All animals were housed singly in a virus-free barrier facility in a room maintained at 22° C. under a 12 hour light/dark cycle. The mice were provided ad libitum access to food and water.
The synthetic SG was mixed with finely ground Purina Chow mouse pellets (Mouse Diet™, Purina) to create the experimental pellets with a SG content of 1000 μg per pellet. Dry materials were blended with a sterile silicon spatula. For every 5 g of standard feed, 2.5 mL of doubly-distilled water (dd)H2O was added and the dough was kneaded and round up into pellets. A single sterol glucoside containing pellet was placed in the feeding tray each morning before the addition of regular mouse chow (ad libitum). All experimental pellets were entirely consumed by the mice each day. Control mice were fed standard mouse chow pellets of identical weight with no additives. SG feeding was conducted daily for 15 weeks and mice were behaviorally monitored until sacrifice at 35 weeks (time point 1) or 52 weeks (time point 2).
Gait analysis: In order to examine spatial and temporal indices of front and hind limb stepping patterns during forward locomotion, mice were required to run on a colorless (PVC and polycarbonate), straight, level, walled motorized belt (Digigait™, treadmill motor: DC, HP; torque 451b-in, Mouse Specifics, Inc., Boston, Mass., USA) set at 30 rpm with a no-flicker light source (90-250 VAC; 25 kHZ, Mouse Specifics, Inc., Boston, Mass., USA) and camera mounted ventrally (relative to the animal) to facilitate continuous ventral plane videography (up to 150 frames per second) of activity. Gait indices were analyzed with the complementary digital imaging software (Digigait™, Mouse Specifics, Inc., Boston, Mass., USA) as per manufacturer's instructions. Briefly, the software converts “paw prints” into a digital signal and generates a temporal record of paw placement and breaks down the digital file into three main parameters: stride duration, swing duration, and stance duration. The stance duration is the period during which the paw of a limb is in contact with the belt surface. The software further subdivides the stance duration into two components: braking duration (the increase in paw contact area over a discrete time interval) and propulsion duration (the decrease in paw contact area over a discrete time interval). The swing duration is the period of time that a paw is not in contact with the belt surface. In addition to these factors, over a dozen additional characteristics, including stance factor, step-sequence pattern, propulsion, and cadence are generated to provide a spreadsheet format report of twenty-five gait indices.

CC[C@H](/C=C/[C@@H](C)[C@H]1CC[C@H]2[C@@H]3CC=C4C[C@@H](O[C@@H]5O[C@H](CO)[C@@H](O)[C@H](O)[C@H]5O)CC[C@]4(C)[C@H]3CC[C@]12C)C(C)C [SG, Stigmasterol β-D-Glucopyranoside]
Forelimb braking (Time-point 1 (35 wk)): Forelimb braking (ns)
Forelimb propulsion (Time-point 1 (35 wk)): Forelimb propulsion (ns)
Forelimb stance width (Time-point 1 (35 wk)): Forelimb stance width (ns)
Forelimb stride length (Time-point 1 (35 wk)): Forelimb stride length (ns)
Hind limb braking (Time-point 1 (35 wk)): Hind limb braking (ns)
Hind limb propulsion (Time-point 1 (35 wk)): Hind limb propulsion (ns)
Hind limb stance width (Time-point 1 (35 wk)): Hind limb stance width (ns)
Hind limb stride frequency (Time-point 1 (35 wk)): Hind limb stride frequency (ns)
Hind limb stride length (Time-point 1 (35 wk)): Hind limb stride length (ns)
Forelimb braking (Time-point 2 (52 wk)): Forelimb braking* (*p < 0.05)
Forelimb propulsion (Time-point 2 (52 wk)): Forelimb propulsion* (*p < 0.05)
Hind limb braking (Time-point 2 (52 wk)): Hind limb braking* (*p < 0.05)
Hind limb propulsion (Time-point 2 (52 wk)): Hind limb propulsion* (*p < 0.05)
Hind limb stride frequency (Time-point 2 (52 wk)): Hind limb stride frequency* (*p < 0.05)
